Source: PubChem BioAssay AID1380 (University of Pittsburgh Molecular Library Screening Center, 2008)
Activity calls are given as the source filed them. No rule for the calls is given here.

Molecular target: Cyclin-dependent kinase 7 (Homo sapiens) (UniProt P50613)
Test: off-target CDK7 activity blockade – biochemical, 57K library addition, counter-screen for PKD inhibitor project, dose response (AID 1380)
Conditions: CDK7 biochemical kinase assay, counterscreen

Chain of Cyclin-dependent kinase 7 (Homo sapiens) (P50613 whole entry, looked up): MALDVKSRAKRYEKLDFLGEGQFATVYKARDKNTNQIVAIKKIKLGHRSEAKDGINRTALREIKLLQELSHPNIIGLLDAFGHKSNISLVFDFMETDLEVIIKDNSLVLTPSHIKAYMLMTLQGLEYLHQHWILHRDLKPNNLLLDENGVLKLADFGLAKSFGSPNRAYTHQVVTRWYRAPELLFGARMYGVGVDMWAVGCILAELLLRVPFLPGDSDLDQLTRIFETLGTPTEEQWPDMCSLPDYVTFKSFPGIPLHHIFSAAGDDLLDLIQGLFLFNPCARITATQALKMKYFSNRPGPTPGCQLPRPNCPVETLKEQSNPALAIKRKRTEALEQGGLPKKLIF

IC50: > 100 µM (inactive)
SMILES: C/C(=N\Nc1ncc(Cl)cc1Cl)c1ccccn1
